Patent EP2193713A1, “Method for fighting animal pests without damaging pollinating insects” (Bayer CropScience AG, priority 2008, dated 2010)
Like-named read-outs stand apart in the source and are kept apart here.

How the values were obtained:
Assay type in all cases: in vivo
[1] = system: Apis mellifera; settings: for Zahl toter Arbeiterbienen: 50 g a.s./ha
From the text: (§1) Der Test wurde gemäß EPPO (European Plant Protection Organisation) Leitlinie 170 wie folgt durchgeführt:
(§2) Die Mortalität von Arbeiterbienen vor dem Bienenstock wird mittels einer Falle für tote Bienen (dead bee trap) bestimmt. Die Falle besteht aus Maschendraht und ist vor dem Bienenstock angebracht. Einzelne, lebende Bienen können die Maschen des Drahts passieren, der Transport toter Bienen durch die Maschen ist nicht möglich, weswegen tote Bienen sich in der Falle ansammeln. Tabelle 1 (siehe auch Figur 1)

[2] = system: Apis mellifera; assay: Tunnel test / spray application / bees: acute mortality of pupae in front of the hive; settings: 50 g a.s./ha
From the text: as §1
Tabelle 2 (siehe auch Figur 2)

[3] = system: Apis mellifera; assay: Tunnel test / spray application / bees: foraging activity; settings: for Aktivität der Nahrungssuche, Zahl der Bienen / min / m^2: 50 g a.s./ha
From the text: as §1
Während einer Minute werden in einem abgegrenzten Bereich von 2 x 1 m^2 die Bienen gezählt, die auf Blüten absitzen. Tabelle 3 (siehe auch Figur 3)

[4] = system: Apis mellifera; assay: Tunnel test / spray application / bees: brood development (share of comb cells); settings: 50 g a.s./ha
From the text: as §1
Über alle Waben eines Bienenstocks wird der jeweilige Anteil an Zellen bestimmt, der durch Pollen, Nektar, Eier, Larven oder Puppen belegt ist bzw. leer ist. […]

[5] = system: Apis mellifera; settings: for Zahl toter Arbeiterbienen: 10 mg a.s./pl.
From the text: as §2

[6] = system: Apis mellifera; assay: Tent test / drench application / bees: foraging activity; settings: for Aktivität der Nahrungssuche, Zahl der Bienen / min / 4 m^2: 10 mg a.s./pl.
From the text: Der Test wurde wie folgt durchgeführt:

[7] = system: Apis mellifera; assay: Greenhouse test / residue test / bees: mortality after contact with treated tomato leaves; settings: 50 g a.s./ha
From the text: Der Versuch wurde wie folgt durchgeführt:
Die Tomatenpflanzen wurden im Gewächshaus mit den Testverbindungen bzw. der Referenzsubstanz behandelt (Spritzappliaktion, 3 fache Wiederholung). 1, 3, 6 und 13 Tage nach Behandlung (DAA) wurden Blätter entnommen (je 5 Blattproben pro Behandlung) und in Boxen gegeben. In jede Box wurden 10 Bienen transferiert und die Boxen wurden unter kontrollierten Bedingungen aufbewahrt, wobei die Bienen mit Zuckerlösung gefüttert wurden. 24, 48 und 72 nach Transfer der Bienen wurde deren Mortalität bestimmt. Tabelle 9 (siehe auch Figur 9)

[8] = result in words, 27 Tage nach Applikation

CN1COCN(Cc2cnc(Cl)s2)/C1=N\[N+](=O)[O-] [Thiamethoxam, reference compound]
Zahl toter Arbeiterbienen ([1]; 0 DAA b (15:15 Uhr)): 420 | Zahl toter Arbeiterbienen ([1]; 0 DAA c (17:15 Uhr)): 45,3 | Zahl toter Arbeiterbienen ([1]; 1 DAA): 152,8 | Zahl toter Arbeiterbienen ([1]; 2 DAA): 229,4 | Zahl toter Arbeiterbienen ([1]; 3 DAA): 50,2 | Zahl toter Arbeiterbienen ([1]; 4 DAA): 891,6 | Zahl toter Arbeiterbienen ([1]; 5 DAA): 2,4 | Zahl toter Arbeiterbienen ([1]; 6 DAA): 9 | Zahl toter Arbeiterbienen ([1]; 11 DAA): 16,5 | Zahl toter Arbeiterbienen ([1]; -3 DAA (before application)): 1,6 | Mortalität von Arbeiterbienen vor dem Bienenstock ([1]; result in words, tunnel test, spray, I-5 75 und 150 g a.s./ha, Thiamethoxam 50 g a.s./ha): ausgeprägte Mortalität | Zahl toter Puppen ([2]; 0 DAA c (17:15 Uhr)): 0 | Zahl toter Puppen ([2]; 1 DAA): 0 | Zahl toter Puppen ([2]; 2 DAA): 0,1 | Zahl toter Puppen ([2]; 5 DAA): 0,5 | Zahl toter Puppen ([2]; 6 DAA): 0 | Zahl toter Puppen ([2]; 11 DAA): 0 | Zahl toter Puppen ([2]; 14 DAA): 0,4 | Zahl toter Puppen ([2]; 18 DAA): 0 | Zahl toter Puppen ([2]; 21 DAA): 0 | Zahl toter Puppen ([2]; 25 DAA): 0,2 | Zahl toter Puppen ([2]; -3 DAA (before application)): 0 | Aktivität der Nahrungssuche, Zahl der Bienen / min / m^2 ([3]; 0 DAA a (09:30 Uhr)): 26,8 Bienen / min / m^2 | Aktivität der Nahrungssuche, Zahl der Bienen / min / m^2 ([3]; 0 DAA c (14:15 Uhr)): 0,9 Bienen / min / m^2 | Aktivität der Nahrungssuche, Zahl der Bienen / min / m^2 ([3]; 0 DAA e (17:15 Uhr)): 0,4 Bienen / min / m^2 | Aktivität der Nahrungssuche, Zahl der Bienen / min / m^2 ([3]; 1 DAA b (15:30 Uhr)): 0 Bienen / min / m^2 | Aktivität der Nahrungssuche, Zahl der Bienen / min / m^2 ([3]; 2 DAA): 1,5 Bienen / min / m^2 | Aktivität der Nahrungssuche, Zahl der Bienen / min / m^2 ([3]; 3 DAA): 1,6 Bienen / min / m^2 | Aktivität der Nahrungssuche, Zahl der Bienen / min / m^2 ([3]; 6 DAA): 5,4 Bienen / min / m^2 | Aktivität der Nahrungssuche, Zahl der Bienen / min / m^2 ([3]; -1 DAA (before application)): 26,1 Bienen / min / m^2 | Aktivität der Nahrungssuche, Zahl der Bienen / min / m^2 ([3]; -2 DAA (before application)): 35,2 Bienen / min / m^2 | Aktivität der Nahrungssuche, Zahl der Bienen / min / m^2 ([3]; -3 DAA (before application)): 24,5 Bienen / min / m^2 | Aktivität der Nahrungssuche ([3]; result in words, tunnel test, spray, I-5 75 und 150 g a.s./ha, Thiamethoxam 50 g a.s./ha directly after application): fast vollständige Einstellung der Aktivität der Nahrungssuche | Anteil an Zellen: Eier ([4]; 1 Tag vor Applikation): 17,5% | Anteil an Zellen: Larven ([4]; 1 Tag vor Applikation): 9% | Anteil an Zellen: Leer ([4]; 1 Tag vor Applikation): 30% | Anteil an Zellen: Nektar ([4]; 1 Tag vor Applikation): 12% | Anteil an Zellen: Pollen ([4]; 1 Tag vor Applikation): 2,4% | Anteil an Zellen: Puppen ([4]; 1 Tag vor Applikation): 29,1% | Anteil an Zellen: Eier ([4]; 6 Tage nach Applikation): 11,4% | Anteil an Zellen: Larven ([4]; 6 Tage nach Applikation): 6,3% | Anteil an Zellen: Leer ([4]; 6 Tage nach Applikation): 30,9% | Anteil an Zellen: Nektar ([4]; 6 Tage nach Applikation): 19,4% | Anteil an Zellen: Pollen ([4]; 6 Tage nach Applikation): 3,3% | Anteil an Zellen: Puppen ([4]; 6 Tage nach Applikation): 28,7% | Anteil an Zellen: Eier ([4]; 14 Tage nach Applikation): 19,4% | Anteil an Zellen: Larven ([4]; 14 Tage nach Applikation): 7,4% | Anteil an Zellen: Leer ([4]; 14 Tage nach Applikation): 51,8% | Anteil an Zellen: Nektar ([4]; 14 Tage nach Applikation): 9,2% | Anteil an Zellen: Pollen ([4]; 14 Tage nach Applikation): 1,5% | Anteil an Zellen: Puppen ([4]; 14 Tage nach Applikation): 10,7% | Anteil an Zellen: Eier ([4]; 27 Tage nach Applikation): 6,1% | Anteil an Zellen: Larven ([4]; 27 Tage nach Applikation): 2% | Anteil an Zellen: Leer ([4]; 27 Tage nach Applikation): 52% | Anteil an Zellen: Nektar ([4]; 27 Tage nach Applikation): 15,5% | Anteil an Zellen: Pollen ([4]; 27 Tage nach Applikation): 5,1% | Anteil an Zellen: Puppen ([4]; 27 Tage nach Applikation): 19,2% | Zahl der Larven [4, 8]: starke Abnahme | leere Wabenzellen [4, 8]: Verdoppelung | Zahl toter Arbeiterbienen ([5]; 6 DAA a (9:30 Uhr)): 143 | Zahl toter Arbeiterbienen ([5]; 6 DAA b (14:30 Uhr)): 35 | Zahl toter Arbeiterbienen ([5]; 7 DAA): 394 | Zahl toter Arbeiterbienen ([5]; 8 DAA): 143 | Zahl toter Arbeiterbienen ([5]; 9 DAA): 78 | Zahl toter Arbeiterbienen ([5]; 10 DAA): 295 | Zahl toter Arbeiterbienen ([5]; 11 DAA): 110 | Zahl toter Arbeiterbienen ([5]; 14 DAA): 40 | Zahl toter Arbeiterbienen ([5]; 16 DAA): 74 | Zahl toter Arbeiterbienen ([5]; 18 DAA): 29 | Mortalität von Arbeiterbienen vor dem Bienenstock ([5]; result in words, tent test, drench, I-5 20 mg a.s. / Pflanze, Thiamethoxam 10 mg a.s. / Pflanze): ausgeprägte Mortalität | Aktivität der Nahrungssuche, Zahl der Bienen / min / 4 m^2 ([6]; 5 DAA): 28 Bienen / min / 4 m^2 | Aktivität der Nahrungssuche, Zahl der Bienen / min / 4 m^2 ([6]; 6 DAA b (14:30 Uhr)): 70 Bienen / min / 4 m^2 | Aktivität der Nahrungssuche, Zahl der Bienen / min / 4 m^2 ([6]; 7 DAA): 23 Bienen / min / 4 m^2 | Aktivität der Nahrungssuche, Zahl der Bienen / min / 4 m^2 ([6]; 8 DAA): 25 Bienen / min / 4 m^2 | Aktivität der Nahrungssuche, Zahl der Bienen / min / 4 m^2 ([6]; 9 DAA): 19 Bienen / min / 4 m^2 | Aktivität der Nahrungssuche, Zahl der Bienen / min / 4 m^2 ([6]; 11 DAA): 16 Bienen / min / 4 m^2 | Aktivität der Nahrungssuche, Zahl der Bienen / min / 4 m^2 ([6]; 13 DAA): 14 Bienen / min / 4 m^2 | Aktivität der Nahrungssuche, Zahl der Bienen / min / 4 m^2 ([6]; 15 DAA): 8 Bienen / min / 4 m^2 | Aktivität der Nahrungssuche, Zahl der Bienen / min / 4 m^2 ([6]; 16 DAA): 15 Bienen / min / 4 m^2 | Aktivität der Nahrungssuche, Zahl der Bienen / min / 4 m^2 ([6]; 17 DAA): 13 Bienen / min / 4 m^2 | Aktivität der Nahrungssuche, Zahl der Bienen / min / 4 m^2 ([6]; 18 DAA): 6 Bienen / min / 4 m^2 | Aktivität der Nahrungssuche ([6]; result in words, tent test, drench, I-5 20 mg a.s. / Pflanze, Thiamethoxam 10 mg a.s. / Pflanze (13 Tage nach Applikation)): fast vollständige Einstellung der Aktivität der Nahrungssuche | Mortalität ([7]; leaves taken 1 Tag nach Behandlung, 24 h contact): 100% | Mortalität ([7]; leaves taken 1 Tag nach Behandlung, 48 h contact): 100% | Mortalität ([7]; leaves taken 1 Tag nach Behandlung, 72 h contact): 100% | Mortalität ([7]; leaves taken 3 Tage nach Behandlung, 24 h contact): 100% | Mortalität ([7]; leaves taken 3 Tage nach Behandlung, 48 h contact): 100% | Mortalität ([7]; leaves taken 3 Tage nach Behandlung, 72 h contact): 100% | Mortalität ([7]; leaves taken 6 Tage nach Behandlung, 24 h contact): 100% | Mortalität ([7]; leaves taken 6 Tage nach Behandlung, 48 h contact): 100% | Mortalität ([7]; leaves taken 6 Tage nach Behandlung, 72 h contact): 100% | Mortalität ([7]; leaves taken 13 Tage nach Behandlung, 24 h contact): 93,3% | Mortalität ([7]; leaves taken 13 Tage nach Behandlung, 48 h contact): 93% | Mortalität ([7]; leaves taken 13 Tage nach Behandlung, 72 h contact): 93,3%
